Data on three compounds can be found in ChEMBL document CHEMBL5331135, “Design, Synthesis, and Evaluation of Glucose Transporter Inhibitor-SN38 Conjugates for Targeting Colorectal Cancer” (J Med Chem, 2023).

A short description of data set [1]: Toxicity in AOM/DSS-induced orthotopic CRC BALB/c mouse model assessed as lesions in kidney at 15 mg/kg, iv administered once every 2 days for 2 weeks by H&E staining based analysis. The data set is classed as organism-based. The settings on record: in vivo, 336 h.
The subject of data set [2] is HCT-116. Put plainly: Cytotoxicity against human HCT-116 cells incubated for 48 hrs in presence of SN38 by SRB assay. The data set is classed as functional, cell-based. The settings on record: HCT-116, 48 h. (In SRB staining, fixed cells bind dye roughly in proportion to their protein.)
In data set [3] the test system is COLO 205. Description: Cytotoxicity against human COLO 205 cells incubated for 48 hrs by SRB assay. In kind it is functional, cell-based. The settings on record: COLO 205, 48 h.
A short description of data set [4]: Toxicity in AOM/DSS-induced orthotopic CRC BALB/c mouse model assessed as lesions in heart at 15 mg/kg, iv administered once every 2 days for 2 weeks by H&E staining based analysis. The data set is classed as organism-based. The settings on record: in vivo, 336 h.
For data set [5], the system named is COLO 205. Description: Cytotoxicity against human COLO 205 cells incubated for 48 hrs in presence of SN38 by SRB assay. In kind it is functional, cell-based. The settings on record: COLO 205, 48 h.
Data set [6] is described as follows: Toxicity in AOM/DSS-induced orthotopic CRC BALB/c mouse model assessed as lesions in stomach at 15 mg/kg, iv administered once every 2 days for 2 weeks by H&E staining based analysis. The settings on record: in vivo, 336 h. In kind it is organism-based.
A short description of data set [7]: Toxicity in AOM/DSS-induced orthotopic CRC BALB/c mouse model assessed as lesions in spleen at 15 mg/kg, iv administered once every 2 days for 2 weeks by H&E staining based analysis. The data set is classed as organism-based. The settings on record: in vivo, 336 h.
The subject of data set [8] is HCT-116. Description: Cytotoxicity against human HCT-116 cells incubated for 48 hrs by SRB assay. The data set is classed as functional, cell-based. The settings on record: HCT-116, 48 h.
Data set [9] has as its system HT-29. Put plainly: Cytotoxicity against human HT-29 cells incubated for 48 hrs in presence of SN38 by SRB assay. The data set is classed as functional, cell-based. The settings on record: HT-29, 48 h.
A short description of data set [10]: Toxicity in AOM/DSS-induced orthotopic CRC BALB/c mouse model assessed as lesions in lung at 15 mg/kg, iv administered once every 2 days for 2 weeks by H&E staining based analysis. In kind it is organism-based. The settings on record: in vivo, 336 h.
Data set [11] is described as follows: Toxicity in AOM/DSS-induced orthotopic CRC BALB/c mouse model assessed as lesions in liver at 15 mg/kg, iv administered once every 2 days for 2 weeks by H&E staining based analysis. In kind it is organism-based. The settings on record: in vivo, 336 h.
Data set [12] is described as follows: Toxicity in AOM/DSS-induced orthotopic CRC BALB/c mouse model assessed as body weight loss at 15 mg/kg, iv administered once every 2 days for 2 weeks. In kind it is organism-based. The settings on record: in vivo, 336 h.
Data set [13] has as its system HT-29. Put plainly: Cytotoxicity against human HT-29 cells incubated for 48 hrs by SRB assay. In kind it is functional, cell-based. The settings on record: HT-29, 48 h.
Data set [14] can be described thus: Toxicity in AOM/DSS-induced orthotopic CRC BALB/c mouse model assessed as lesions in heart at 13 mg/kg, iv administered once every 2 days for 2 weeks by H&E staining based analysis. In kind it is organism-based. The settings on record: in vivo, 336 h.
Data set [15] can be described thus: Toxicity in AOM/DSS-induced orthotopic CRC BALB/c mouse model assessed as lesions in spleen at 13 mg/kg, iv administered once every 2 days for 2 weeks by H&E staining based analysis. In kind it is organism-based. The settings on record: in vivo, 336 h.
The nature of data set [16]: Toxicity in AOM/DSS-induced orthotopic CRC BALB/c mouse model assessed as lesions in liver at 13 mg/kg, iv administered once every 2 days for 2 weeks by H&E staining based analysis. In kind it is organism-based. The settings on record: in vivo, 336 h.
A short description of data set [17]: Toxicity in AOM/DSS-induced orthotopic CRC BALB/c mouse model assessed as lesions in kidney at 13 mg/kg, iv administered once every 2 days for 2 weeks by H&E staining based analysis. In kind it is organism-based. The settings on record: in vivo, 336 h.
A short description of data set [18]: Toxicity in AOM/DSS-induced orthotopic CRC BALB/c mouse model assessed as lesions in lung at 13 mg/kg, iv administered once every 2 days for 2 weeks by H&E staining based analysis. The data set is classed as organism-based. The settings on record: in vivo, 336 h.
Data set [19] can be described thus: Toxicity in AOM/DSS-induced orthotopic CRC BALB/c mouse model assessed as lesions in stomach at 13 mg/kg, iv administered once every 2 days for 2 weeks by H&E staining based analysis. The data set is classed as organism-based. The settings on record: in vivo, 336 h.
Data set [20] is described as follows: Antitumor activity against AOM/DSS-induced orthotopic CRC BALB/c mouse model assessed as reduction in tumor area at 13 mg/kg, iv administered once every 2 days for 2 weeks in presence of SN38 by dissecting microscopic analysis relative to control. The data set is classed as functional, Colorectal cancer cell. Set-up: scale not given: the % may be the effect or the level left.

Data set [21] is described as follows: Toxicity in AOM/DSS-induced orthotopic CRC BALB/c mouse model assessed as body weight loss at 13 mg/kg, iv administered once every 2 days for 2 weeks. The settings on record: in vivo, 336 h. The data set is classed as organism-based.
A short description of data set [22]: Antitumor activity against AOM/DSS-induced orthotopic CRC BALB/c mouse model assessed as reduction in tumor area at 13 mg/kg, iv administered once every 2 days for 2 weeks by dissecting microscopic analysis relative to control. The data set is classed as functional, Colorectal cancer cell. Set-up: scale not given: the % may be the effect or the level left.
Data set [23] in a line: Toxicity in AOM/DSS-induced orthotopic CRC BALB/c mouse model assessed as body weight loss at 14 mg/kg, ip administered every other day for 2 weeks in presence of Irinotecan. The data set is classed as organism-based. The settings on record: in vivo, 336 h.
Data set [24] can be described thus: Toxicity in AOM/DSS-induced orthotopic CRC BALB/c mouse model assessed as lesions in stomach at 20 to 40 mg/kg, iv administered once every 2 days for 2 weeks by H&E staining based analysis. In kind it is organism-based. The settings on record: in vivo, 336 h, dose 20-40 mg/kg.
Data set [25] can be described thus: Toxicity in AOM/DSS-induced orthotopic CRC BALB/c mouse model assessed as lesions in liver at 20 to 40 mg/kg, iv administered once every 2 days for 2 weeks by H&E staining based analysis. In kind it is organism-based. The settings on record: in vivo, 336 h, dose 20-40 mg/kg.
Data set [26] in a line: Toxicity in AOM/DSS-induced orthotopic CRC BALB/c mouse model assessed as lesions in lung at 20 to 40 mg/kg, iv administered once every 2 days for 2 weeks by H&E staining based analysis. In kind it is organism-based. The settings on record: in vivo, 336 h, dose 20-40 mg/kg.
Data set [27] can be described thus: Antitumor activity against AOM/DSS-induced orthotopic CRC BALB/c mouse model assessed as tumor growth inhibition at 40 mg/kg, iv administered once every 2 days for 2 weeks in presence of SGLT inhibitor by dissecting microscopic analysis relative to control. The data set is classed as functional, Colorectal cancer cell. Also on record: scale not given: the % may be the effect or the level left.

Data set [28] can be described thus: Toxicity in AOM/DSS-induced orthotopic CRC BALB/c mouse model assessed as lesions in spleen at 20 to 40 mg/kg, iv administered once every 2 days for 2 weeks by H&E staining based analysis. The data set is classed as organism-based. The settings on record: in vivo, 336 h, dose 20-40 mg/kg.
Data set [29] is described as follows: Stability in human plasma assessed as formation of carboxylate product measured for 72 hrs by RP-HPLC analysis. The data set is classed as ADME, cell-free.
A short description of data set [30]: Drug uptake in human COLO 205 cells assessed as drug internalization in presence of 4.5 g/L glucose by fluorescence based assay. In kind it is ADME, cell-based.
A short description of data set [31]: Toxicity in AOM/DSS-induced orthotopic CRC BALB/c mouse model assessed as body weight loss at 40 mg/kg, iv administered once every 2 days for 2 weeks. In kind it is organism-based. The settings on record: in vivo, 336 h.
The nature of data set [32]: Toxicity in AOM/DSS-induced orthotopic CRC BALB/c mouse model assessed as lesions in heart at 20 to 40 mg/kg, iv administered once every 2 days for 2 weeks by H&E staining based analysis. In kind it is organism-based. The settings on record: in vivo, 336 h, dose 20-40 mg/kg.
Data set [33] can be described thus: Stability in human plasma assessed as half life by RP-HPLC analysis. In kind it is ADME, cell-free.
Data set [34] is described as follows: Toxicity in AOM/DSS-induced orthotopic CRC BALB/c mouse model assessed as lesions in kidney at 20 to 40 mg/kg, iv administered once every 2 days for 2 weeks by H&E staining based analysis. The settings on record: in vivo, 336 h, dose 20-40 mg/kg. In kind it is organism-based.
The nature of data set [35]: Antitumor activity against AOM/DSS-induced orthotopic CRC BALB/c mouse model assessed as tumor growth inhibition at 20 mg/kg, iv administered once every 2 days for 2 weeks in presence of SGLT inhibitor by dissecting microscopic analysis relative to control. The data set is classed as functional, Colorectal cancer cell. Also on record: scale not given: the % may be the effect or the level left.

Consider `O=C(CCc1ccc(O)cc1)c1c(O)cc(OCCOCCOCCS)cc1O[C@@H]1O[C@H](CO)[C@@H](O)[C@H](O)[C@H]1O`, for which the Activity entry in data set [1], in [4], in [6], in data set [7], in data set [10] and in data set [11] was “Non-Toxic” throughout. The Activity entry in data set [12] is reported as “Non-Toxic”. The IC50 (as a rule, the concentration that inhibits the measured activity by half) was 45.4 nM in [2]; > 100000 nM in [3]; 140 nM in [5]; > 100000 nM in data set [8]; 330 nM in data set [9]; > 100000 nM in data set [13].
With `O=C(CCc1ccc(O)cc1)c1c(O)cc(OCCOCCOCCS)cc1O`, the IC50 in data set [2] is 56.5 nM; in data set [3], > 100000 nM; in data set [5], 150 nM; in data set [9] it was 360 nM. The Activity entry in data set [14], in [15], in data set [16], in [17], in [18] and in data set [19] was “Non-Toxic” in each case. Also, the Activity in data set [20] is given as 55%; in data set [21] it was “Non-Toxic”; in data set [22] it was 35%; in data set [23] it was “Non-Toxic”.
In the case of `CCc1c2c(nc3ccc(OCc4ccc(NC(=O)[C@H](CCCNC(N)=O)NC(=O)[C@@H](NC(=O)CCCCN5C(=O)CC(SCCOCCOCCOc6cc(O)c(C(=O)CCc7ccc(O)cc7)c(O[C@@H]7O[C@H](CO)[C@@H](O)[C@H](O)[C@H]7O)c6)C5=O)C(C)C)cc4)cc13)-c1cc3c(c(=O)n1C2)COC(=O)[C@]3(O)CC` (some centres not stated), the Activity result in data set [24] is “Non-Toxic”; in data set [25], “Non-Toxic”; in data set [26], “Non-Toxic”; in data set [27], 55%; in [28], “Non-Toxic”; in data set [31], “Non-Toxic”. Further, the figures for the Activity entry in data set [32], in data set [34] and in data set [35] were “Non-Toxic”, “Non-Toxic” and 45%, respectively. In addition, the results for the IC50 in [3], in [8] and in data set [13] were 15400 nM, 3250 nM and > 100000 nM, respectively. Further, in data set [29], the Stability result is recorded as “Stable”. The Drug uptake result in data set [30] is given as “Active”. For the same compound, in data set [33], the half-life (usually the time in which the quantity being followed falls by half) was 36 h.
